According to article PMC7435819, “Towards the Inhibition of Protein–Protein Interactions (PPIs) in STAT3: Insights into a New Class of Benzothiadiazole Derivatives” (Molecules, 2020):
Where two headings read alike, the source gives them in different places. Where no end group is shown, it is not given here. [ ]: non-standard residue; d: D form. pY = N[C@@H](Cc1ccc(OP(=O)(O)O)cc1)C(=O)O

B1: 5-carboxyfluorescein (FITC)-GpYLPQTV (peptide)
peptide: G[pY]LPQTV
modifications: not fully specified (N-terminus)
notes: also called pTyr peptide probe for STAT3; phosphotyrosine peptide

Assays:
[1] = molecular target: T1, STAT3 (Homo sapiens, UniProt P40763); assay: AlphaScreen-based competitive binding assay, STAT3 SH2 domain vs FITC-GpYLPQTV; details: for IC50: STAT3 wild-type (WT), read-out: STAT3 inhibition: IC50
T1 construct: a truncated form of STAT3 (136-705) was constructed and chromatographically purified; made in house
T1 sequence (P40763 136-705): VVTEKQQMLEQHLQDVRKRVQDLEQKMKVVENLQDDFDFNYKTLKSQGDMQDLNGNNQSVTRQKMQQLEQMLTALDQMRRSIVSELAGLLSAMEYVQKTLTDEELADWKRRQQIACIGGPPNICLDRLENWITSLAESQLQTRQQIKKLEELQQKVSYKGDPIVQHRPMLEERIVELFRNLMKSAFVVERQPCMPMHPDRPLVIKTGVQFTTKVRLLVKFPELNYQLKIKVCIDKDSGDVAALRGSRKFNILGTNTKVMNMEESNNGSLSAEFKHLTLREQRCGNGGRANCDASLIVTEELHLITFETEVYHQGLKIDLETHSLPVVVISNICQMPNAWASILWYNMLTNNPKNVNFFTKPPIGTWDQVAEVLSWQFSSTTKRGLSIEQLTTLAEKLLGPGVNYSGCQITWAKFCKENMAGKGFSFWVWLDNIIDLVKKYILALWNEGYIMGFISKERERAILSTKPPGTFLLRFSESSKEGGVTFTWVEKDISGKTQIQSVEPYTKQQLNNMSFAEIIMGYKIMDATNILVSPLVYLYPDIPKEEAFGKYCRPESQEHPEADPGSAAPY
Excerpt: (§1) AlphaScreen is an in vitro competitive binding test used to identify compounds that are able to inhibit the binding of proteins containing an SH2 domain to their corresponding phosphopeptides (5-carboxyfluorescein (FITC)-GpYLPQTV for STAT3 and FITC-GpYDKPHVL for STAT1) (Table 2).
(§2) AlphaScreen is a bead-based non-radioactive assay system for the detection of biomolecular interactions in a microtiter plate format. The binding of biological partners brings donor and acceptor beads into close proximity and, as a result, a fluorescent signal between 520 and 620 nm was produced. The AlphaScreen-based assays were performed in a final reaction volume of 25 μL of the assay buffer containing 10 mM HEPES–NaOH (pH 7.4), 50 mM NaCl, 1 mM EDTA (pH 8.0), 0.1% NP-40, and 10 ng/μL bovine serum albumin (BSA) in a 96-well microtiter plate at 25 °C. The pTyr peptide probes used in this study were 5-carboxyfluorescein (FITC)-GpYLPQTV for STAT3 and (FITC)-GpYDKPHVL for STAT1. Plasmid construction and protein expression were performed as previously described; the experimental method is briefly summarized as follows. Considering that the expression of the full-length protein is troublesome, a truncated form of STAT3 (136-705) was constructed and chromatographically purified (AKTA FPLC system; GE Healthcare Bio-Sciences, Piscataway, NJ, USA). The soluble STAT3 fraction was loaded on a HisTrap™ column (GE Healthcare Bio-Sciences) and eluted with an imidazole gradient (50 mM Tris–HCl pH 7.4, 300 mM NaCl, 0.2 mM EDTA, 0.1% (w/v) NP-40, 5 mM β-mercaptoethanol, 10% (v/v) glycerol, and 10–300 mM imidazole). An SDS-PAGE stained with Coomassie Brilliant Blue (CBB) was performed to check the purity of the protein (see Figure S71). Subsequently, the protein was dialyzed (10 mM HEPES-NaOH pH 7.4, 50 mM NaCl, 10 mM β-mercaptoethanol, 0.1 mM EGTA, 0.02% (w/v) NP-40, 0.2 mM phenylmethylsulphonyl fluoride (PMSF), and 10% (v/v) glycerol).
Firstly, 75 nM of each SH2-containing protein were incubated with the test compound (at the following concentrations: 1, 3, 10, and 30 µM) for 15 min. Each protein sample was then incubated for 90 min with 50 nM of its corresponding FITC-pTyr peptide and simultaneously mixed with streptavidin-coated donor beads and anti-FITC acceptor beads before detection at 570 nm using EnVison Xcite (PerkinElmer, Waltham, MA, USA).

[2] = molecular target: T2, STAT1 (Homo sapiens, UniProt P42224); assay: AlphaScreen-based competitive binding assay, STAT1 vs FITC-GpYDKPHVL; details: read-out: STAT1 inhibition: IC50
T2 sequence (P42224 1-750): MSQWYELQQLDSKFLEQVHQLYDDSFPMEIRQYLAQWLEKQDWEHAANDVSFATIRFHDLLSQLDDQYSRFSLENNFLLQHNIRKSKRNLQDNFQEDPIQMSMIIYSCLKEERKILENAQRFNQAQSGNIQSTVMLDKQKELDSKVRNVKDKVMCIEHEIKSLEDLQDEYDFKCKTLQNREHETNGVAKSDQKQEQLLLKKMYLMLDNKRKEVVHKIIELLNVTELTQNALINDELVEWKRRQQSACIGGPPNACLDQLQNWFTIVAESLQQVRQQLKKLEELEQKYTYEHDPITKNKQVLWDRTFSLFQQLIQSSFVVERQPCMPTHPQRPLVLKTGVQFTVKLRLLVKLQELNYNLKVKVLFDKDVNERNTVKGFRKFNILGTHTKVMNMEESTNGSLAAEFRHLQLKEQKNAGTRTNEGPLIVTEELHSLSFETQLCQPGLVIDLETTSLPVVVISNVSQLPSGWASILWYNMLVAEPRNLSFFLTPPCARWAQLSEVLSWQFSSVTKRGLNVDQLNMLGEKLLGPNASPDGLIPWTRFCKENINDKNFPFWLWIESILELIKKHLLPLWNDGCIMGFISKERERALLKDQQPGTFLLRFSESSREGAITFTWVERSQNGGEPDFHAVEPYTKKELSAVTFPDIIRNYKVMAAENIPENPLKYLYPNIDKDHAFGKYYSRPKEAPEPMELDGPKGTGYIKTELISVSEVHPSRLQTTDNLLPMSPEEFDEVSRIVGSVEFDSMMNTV
Excerpt: as §1
as §2, with “The soluble STAT3 fraction was loaded on a HisTrap™ column (GE Healthcare Bio-Sciences) and eluted with an imidazole gradient (50 mM Tris–HCl pH 7.4, 300 mM NaCl, 0.2 mM EDTA, 0.1% (w/v) NP-40, 5 mM β-mercaptoethanol, 10% (v/v) glycerol, and 10–300 mM imidazole). An SDS-PAGE stained with Coomassie Brilliant Blue (CBB) was performed to check the purity of the protein (see Figure S71). Subsequently, the protein was dialyzed (10 mM HEPES-NaOH pH 7.4, 50 mM NaCl, 10 mM β-mercaptoethanol, 0.1 mM EGTA, 0.02% (w/v) NP-40, 0.2 mM phenylmethylsulphonyl fluoride (PMSF), and 10% (v/v) glycerol).” left out

[3] = molecular target: T3, truncated form of STAT3 (136-705) (UniProt P40763 136-705); assay: AlphaScreen or HTRF; same procedure with STAT3 single-cysteine mutants; compound 1 (0.3-30 µM) premixed with L-Cys in PBS and AlphaScreen buffer, mixed with the STAT3 mutant solution before adding the FITC-peptide; details: both partners purified
T3 construct: STAT3, residues 136-705; also called STAT3 wild-type; source: plasmid construction and protein expression as previously described [52]; chromatographically purified (HisTrap column, imidazole gradient), dialyzed
T3 sequence (P40763 136-705): as the sequence (P40763 136-705) above

[4] = 30 µM, n.a.: not active, read-out: STAT3 % Inhibition (30 µM)
[5] = Table 1, AlphaScreen-based assay at 30 µM, STAT3-SH2 domain, read-out: % Inhibition

Row | Molecule | inhibition at 30 µM [1, 4] [%] | IC50 [1] [µM] | melting point [°C] | further results
1 | O=S1(=O)Nc2ccccc2N1 [Compound 1a, 1H,3H-2,1,3-Benzothiadiazole-2,2-dioxide] | 16.4 ± 0.8 | > 30 |  | 
2 | Cc1ccc2c(c1)NS(=O)(=O)N2 [Compound 1b, 5-Methyl-1H,3H-2,1,3-benzothiadiazole-2,2-dioxide] | 14.5 ± 0.6 | > 30 | 157 | 
3 | O=S1(=O)Nc2ccc(C(F)(F)F)cc2N1 [Compound 1c, 5-(Trifluoromethyl)-1H,3H-2,1,3-benzothiadiazole-2,2-dioxide] | 8.2 ± 1.6 | > 30 | 143 | 
4 | O=[N+]([O-])c1ccc2c(c1)NS(=O)(=O)N2 [Compound 1d, 5-Nitro-1H,3H-2,1,3-benzothiadiazole-2,2-dioxide] | 56.9 ± 3.6 | 25.1 |  | IC50 [2]: 15.9 µM
5 | O=S1(=O)Nc2ccc(Cl)cc2N1 [Compound 1e, 5-Chloro-1H,3H-2,1,3-benzothiadiazole-2,2-dioxide] | 28.2 ± 1.4 | > 30 |  | 
6 | CC(=O)Nc1ccc2c(c1)NS(=O)(=O)N2 [Compound 1f, N-(2,2-Dioxo-1H,3H-2,1,3-benzothiadiazol-5-yl)acetamide] | 18.9 ± 2.3 | > 30 |  | 
7 | CC(C)CCNC(=O)CCc1ccc2c(c1)NS(=O)(=O)N2 [Compound 1g, 3-(2,2-Dioxo-1H,3H-2,1,3-benzothiadiazol-5-yl)-N-(3-methylbutyl)propanamide] | 11 ± 2.1 | > 30 |  | 
8 | O=C(CCc1ccc2c(c1)NS(=O)(=O)N2)Nc1ccccc1 [Compound 1h, 3-(2,2-Dioxo-1H,3H-2,1,3-benzothiadiazol-5-yl)-N-phenylpropanamide] |  |  | 192 to 197 | 
9 | O=S1(=O)Nc2ccc(-c3ccccc3)cc2N1 [Compound 1i, 5-Phenyl-1H,3H-2,1,3-benzothiadiazole-2,2-dioxide] | 6.1 ± 0.9 | > 30 | 180 to 185 | 
10 | Cc1cc2c(cc1Br)NS(=O)(=O)N2 [Compound 2a, 5-Bromo-6-methyl-1H,3H-2,1,3-benzothiadiazole-2,2-dioxide] | 25.6 ± 1.2 | > 30 | 185 | 
11 | Cc1ccc2c(c1)N(C)S(=O)(=O)N2C [Compound 2b, 1,3,5-Trimethyl-2,1,3-benzothiadiazole-2,2-dioxide] | 8.9 ± 1.1 | > 30 |  | 
12 | O=S1(=O)N(Cc2ccccc2)c2ccccc2N1Cc1ccccc1 [Compound 3, 1,3-Dibenzyl-2,1,3-benzothiadiazole-2,2-dioxide] |  |  | 134 | 
13 | O=C(CN1c2ccccc2NS1(=O)=O)NCCc1ccccc1 [Compound 4, 2-(2,2-Dioxo-3H-2,1,3-benzothiadiazol-1-yl)-N-(2-phenylethyl)acetamide] | 17.3 ± 1.3 | > 30 | 172 | 
14 | Oc1nc2ccccc2[nH]1 [Compound 5, 2,3-Dihydro-1H-1,3-benzodiazol-2-one] | 3.5 ± 5.6 | > 30 |  | 
15 | O=S1(=O)Cc2ccccc2C1 [Compound 6] | 11.5 ± 0.8 | > 30 |  | 
16 | NC1=NS(=O)(=O)Nc2nonc21 [III] |  |  |  | inhibition at 30 µM [1, 5]: 85.4%
17 | CCN1C(Cl)=NS(=O)(=O)c2ccccc21 [II] |  |  |  | inhibition at 30 µM [1, 5]: 43.4%
18 | CN1C(Cl)=NS(=O)(=O)c2ccccc21 [I] |  |  |  | inhibition at 30 µM [1, 5]: 79%
19 | B1 |  |  |  | binding result [3]: binds
